Where two headings read alike, the source gives them in different places.
What was measured:
[1] = tested on: RH1^RC1 T. brucei; test: microbe, parasite or virus in culture; type: cell-based; settings: for EC50: Trypanosoma brucei, read-out: EC50 RH1^RC1;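 on ratio (fold difference in EC50 between RH1^RC1 and wild type): resistant clone selected by stepwise exposure to the aziridinyl benzoquinone prodrug in culture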
[2] = tested on: bloodstream form T. brucei; test: Growth inhibition of wild type / control bloodstream form T. brucei (resazurin); type: cell-based; settings: for EC50: Trypanosoma brucei
[3] = tested on: T. cruzi epimastigotes; test: Growth inhibition of T. cruzi epimastigotes (resazurin); type: cell-based; settings: for EC50: read-out: T. cruzi EC50
[4] = tested on: L. major promastigotes; test: Growth inhibition of L. major promastigotes (resazurin); type: cell-based; settings: for EC50: Leishmania major, 144 h, read-out: L. major EC50
[5] = tested on: differentiated THP‐1 cells; test: Mammalian inhibition assay, differentiated THP-1 cells; type: cell-based; settings: Homo sapiens, read-out: THP‐1 EC50
[6] = tested on: T. brucei over expressing TbNTR (Tbntr++); test: microbe, parasite or virus in culture; type: cell-based; settings: for EC50: Trypanosoma brucei, read-out: EC50 Tbntr++
[7] = tested on: T. brucei over expressing TbCPR2 (Tbcpr2++); test: microbe, parasite or virus in culture; type: cell-based; settings: for EC50: Trypanosoma brucei, read-out: EC50 Tbcpr2++
[8] = tested on: T. brucei Tbsnm1 null mutants (ΔTbsnm1); test: microbe, parasite or virus in culture; type: cell-based; settings: for EC50: Trypanosoma brucei, read-out: EC50 ΔTbsnm1
[9] = tested on: mouse peritoneal macrophages; test: Toxicity to mouse peritoneal macrophages (cell counts, Giemsa); type: cell-based, BALB/c mice; settings: Peritoneal macrophage, 120 h, read-out: EC50 towards mouse peritoneal macrophages
[10] = tested on: Wild type T. brucei; type: cell-based
[11] = 72 h, bloodstream form, 3 days, Table 1, activity of some compounds previously reported (Hall et al., 2012), read-out: T. brucei EC50
[12] = Trypanosoma cruzi, 336 h, epimastigotes, 14 days
[13] = Selectivity Index: fold difference in EC50 of THP‐1 line relative to parasite
[14] = Table 2, parasites expressing wild type levels, read-out: EC50 Control
[15] = Table 4, wild type T. brucei, read-out: EC50 Control
[16] = 72 h, differentiated THP‐1 cells, 3 days
[17] = Table 3, BSF T. brucei wild type, read-out: EC50 Wild type

Compound: O=C(Cn1ccnc1[N+](=O)[O-])NCc1ccccc1 [benznidazole]
- Susceptibility of RH1 selected (RH1^RC) lines relative to wild type [1]: cross‐resistance

Compound: O=C1C(Br)=C(N2CC2)C(=O)C(Br)=C1N1CC1 [ABQ3]
- EC50 [2, 11]: 0.4 ± 0.03 µM
- EC50 [3, 12]: 6.2 ± 1.16 µM
- EC50 ([4]; promastigotes, 6 days): 0.199 ± 0.004 µM

Compound: C[C@@H]1CN1C1=CC(=O)C(N2C[C@H]2C)=CC1=O [ABQ23]
- T. brucei SI [2, 13]: <1
- EC50 [2, 11]: 2.3 ± 0.06 µM
- EC50 [2, 14]: 2.94 ± 0.42 µM
- EC50 [2, 15]: 2.3 ± 0.06 µM
- T. cruzi SI [3]: <1
- EC50 [3, 12]: 2.18 ± 0.67 µM
- EC50 ([4]; promastigotes, 6 days): 0.348 ± 0.166 µM
- EC50 [5, 16]: < 0.4 µM
- Fold difference in EC50 Tbntr++ relative to control [6]: 3315 ± 540 (1.13)
- EC50 [6]: 3.31 µM
- Fold difference in EC50 Tbcpr2++ relative to control [7]: 3556 ± 96 (1.21)
- EC50 [7]: 3.56 µM
- Ratio of EC50 values ΔTbsnm1 / control [8]: 1.01
- Susceptibility of Tbsnm1 null mutants relative to wild type / control (fold more susceptible) [8]: no significant difference
- EC50 [8]: 2.41 ± 0.16 µM

Compound: N[C@@H](Cc1ccc(N(CCCl)CCCl)cc1)C(=O)O [Melphalan]
- EC50 ([2]; read-out: EC50 Wild type): 8.74 ± 0.2 µM
- ratio (fold difference in EC50 between RH1^RC1 and wild type) [1]: 1.2
- EC50 [1]: 10.4 ± 0.23 µM

Compound: O=C1C=C(N2CC2)C(=O)C=C1N1CC1 [DZQ]
- T. brucei SI [2]: 1
- EC50 ([2]; 72 h, read-out: T. brucei EC50): 0.272 ± 0.001 µM
- T. cruzi SI [3]: 36
- EC50 ([3]; Trypanosoma cruzi, 336 h): < 0.01 µM
- EC50 [3]: 0.005 ± 0.001 µM
- L. major EC50 [4]: high potency
- L. major SI [4]: 3
- EC50 [4]: 0.06 ± 0.001 µM
- EC50 ([5]; THP-1, 72 h): 0.181 ± 0.005 µM
- EC50 [9]: 0.255 µM
- Fold difference in EC50 Tbntr++ relative to control [6]: 90 ± 3 (0.28 )
- EC50 [6]: 0.09 µM
- Ratio of EC50 values ΔTbsnm1 / control [8]: 0.27
- EC50 [8]: 0.043 ± 0.002 µM

Compound: CC1CN1C1=C(F)C(=O)C(N2CC2C)=C(F)C1=O (stereo not drawn) [ABQ29]
- EC50 [3, 12]: 0.975 ± 0.025 µM
- EC50 ([4]; promastigotes, 6 days): 0.175 ± 0.005 µM

Compound: CC1(C)CN1C1=C(Br)C(=O)C(N2CC2(C)C)=C(Br)C1=O [ABQ26]
- EC50 ([2]; 72 h, read-out: T. brucei EC50): > 10 µM
- EC50 ([3]; Trypanosoma cruzi, 336 h): 8.64 ± 0.736 µM
- EC50 [4]: 2.36 ± 0.23 µM

Compound: phleomycin [reference compound]
- Cells in G1/S phase (1N1K) [10]: approximately 80%

Compound: CC1CN1C1=C(Br)C(=O)C(N2CC2C)=C(Br)C1=O (stereo not drawn) [ABQ25]
- EC50 [2, 11]: > 10 µM
- EC50 ([4]; promastigotes, 6 days): 0.08 ± 0.006 µM
- L. major EC50 ([4]; promastigotes, 6 days): high potency

Compound: CC(=O)NC1=C(N2CC2)C(=O)C(NC(C)=O)=C(N2CC2)C1=O [ABQ15]
- EC50 ([2]; 72 h, read-out: T. brucei EC50): > 10 µM
- EC50 ([3]; Trypanosoma cruzi, 336 h): 3.31 ± 0.2 µM
- EC50 [4]: > 10 µM

Compound: CC(C)NC1=C(N2CC2)C(=O)C(NC(C)C)=C(N2CC2)C1=O [ABQ13]
- EC50 ([2]; 72 h, read-out: T. brucei EC50): > 10 µM
- EC50 ([3]; Trypanosoma cruzi, 336 h): 5.55 ± 0.24 µM
- EC50 [4]: > 10 µM

Compound: CC1CCC(NC(=O)N(CCCl)N=O)CC1 (stereo not drawn) [Semustine]
- EC50 ([2]; read-out: EC50 Wild type): 15 ± 3.46 µM
- ratio (fold difference in EC50 between RH1^RC1 and wild type) [1]: 1.1
- EC50 [1]: 17.1 ± 3.62 µM

Compound: CC1(C)CN1C1=C(F)C(=O)C(N2CC2(C)C)=C(F)C1=O [ABQ30]
- T. brucei SI [2]: <1
- EC50 ([2]; 72 h, read-out: T. brucei EC50): 7.4 ± 0.19 µM
- EC50 ([2]; read-out: EC50 Control): 7.4 ± 0.19 µM
- T. cruzi SI [3]: 4
- EC50 ([3]; Trypanosoma cruzi, 336 h): 0.98 ± 0.025 µM
- L. major SI [4]: 22
- EC50 [4]: 0.174 ± 0.01 µM
- EC50 ([5]; THP-1, 72 h): 3.75 ± 0.32 µM
- Fold difference in EC50 Tbntr++ relative to control [6]: 8670 ± 1670 (1.12)
- EC50 [6]: 8.67 µM

Compound: COC1=C(N2CC2)C(=O)C(OC)=C(N2CC2)C1=O [ABQ6]
- EC50 [2, 11]: 0.283 ± 0.041 µM
- T. cruzi SI [3]: 5
- EC50 [3, 12]: 0.205 ± 0.053 µM
- EC50 ([4]; promastigotes, 6 days): 0.664 ± 0.002 µM
- EC50 [5, 16]: 1.07 ± 0.159 µM

Compound: CC1=C(N2CC2)C(=O)C(C)=C(N2CC2)C1=O [MeDZQ]
- T. brucei SI [2]: 1
- EC50 ([2]; 72 h, read-out: T. brucei EC50): 0.698 ± 0.057 µM
- EC50 ([2]; read-out: EC50 Control): 0.74 ± 0.018 µM
- T. cruzi SI [3]: 16
- EC50 ([3]; Trypanosoma cruzi, 336 h): 0.055 ± 0.002 µM
- L. major SI [4]: 2
- EC50 [4]: 0.56 ± 0.139 µM
- EC50 ([5]; THP-1, 72 h): 0.885 ± 0.023 µM
- Fold difference in EC50 Tbntr++ relative to control [6]: 115 ± 3 (0.16 )
- EC50 [6]: 0.115 µM

Compound: O=C1C(F)=C(N2CC2)C(=O)C(F)=C1N1CC1 [ABQ4]
- EC50 [2, 11]: 1.18 ± 0.16 µM
- EC50 [3, 12]: 0.106 ± 0.025 µM
- EC50 ([4]; promastigotes, 6 days): 0.663 ± 0.006 µM

Compound: CCCOC1=C(N2CC2)C(=O)C(OCCC)=C(N2CC2)C1=O [ABQ8]
- T. brucei SI [2]: 4
- EC50 ([2]; 72 h, read-out: T. brucei EC50): 0.67 ± 0.03 µM
- T. cruzi SI [3]: 2
- EC50 ([3]; Trypanosoma cruzi, 336 h): 1.3 ± 0.108 µM
- L. major SI [4]: 2
- EC50 [4]: 1.87 ± 0.184 µM
- EC50 ([5]; THP-1, 72 h): 2.95 ± 0.77 µM

Compound: O=NN(CCCl)C(=O)NC1CCCCC1 [Lomustine]
- EC50 [2, 17]: 16.6 ± 0.443 µM
- ratio (fold difference in EC50 between RH1^RC1 and wild type) [1]: 0.9
- EC50 [1]: 15.5 ± 0.665 µM

Compound: O=C1C(F)=C(N2CC2)C(=O)C(N2CCOCC2)=C1N1CC1 [ABQ14]
- EC50 ([2]; 72 h, read-out: T. brucei EC50): > 10 µM
- EC50 ([3]; Trypanosoma cruzi, 336 h): 0.445 ± 0.03 µM
- EC50 [4]: 2.27 ± 0.017 µM

Compound: NC(=O)c1cc(N2CC2)c([N+](=O)[O-])cc1[N+](=O)[O-] [CB1954, reference compound]
- EC50 ([2]; read-out: EC50 Wild type): 2.16 ± 0.125 µM
- EC50 [1]: 13.1 ± 0.972 µM

Compound: CCC(=O)NC1=C(N2CC2C)C(=O)C(NC(=O)CC)=C(N2CC2C)C1=O (stereo not drawn) [ABQ33]
- EC50 ([2]; 72 h, read-out: T. brucei EC50): > 10 µM
- EC50 ([3]; Trypanosoma cruzi, 336 h): > 10 µM
- EC50 [4]: 8.157 ± 0.08 µM

Compound: NCCCC(N)(C(=O)O)C(F)F (stereo not drawn) [DFMO, difluoromethylornithine, reference compound]
- EC50 [2, 17]: 16.8 ± 2.69 µM
- EC50 ([2]; read-out: EC50 Control): 27.5 ± 0.108 µM
- Fold difference in EC50 Tbntr++ relative to control [6]: 30720 ± 1330 (1.12)
- EC50 [6]: 30.7 µM
- Fold difference in EC50 Tbcpr2++ relative to control [7]: 33250 ± 5123 (1.21)
- EC50 [7]: 33.2 µM
- ratio (fold difference in EC50 between RH1^RC1 and wild type) [1]: 1.3
- EC50 [1]: 22.2 ± 0.383 µM
- Ratio of EC50 values ΔTbsnm1 / control [8]: 0.99
- Susceptibility of Tbsnm1 null mutants relative to wild type / control (fold more susceptible) [8]: no significant difference
- EC50 [8]: 27.1 ± 0.85 µM

Compound: C1CN1c1nc(N2CC2)nc(N2CC2)n1 [Triethylenemelamine]
- EC50 ([2]; read-out: EC50 Wild type): 2.4 ± 0.086 µM
- ratio (fold difference in EC50 between RH1^RC1 and wild type) [1]: 1.1
- EC50 [1]: 2.77 ± 0.064 µM

Compound: CC1CN1C1=C(Cl)C(=O)C(N2CC2C)=C(Cl)C1=O (stereo not drawn) [ABQ27]
- EC50 [2, 11]: > 10 µM
- EC50 [3, 12]: 0.62 ± 0.18 µM
- EC50 ([4]; promastigotes, 6 days): 0.21 ± 0.01 µM

Compound: C[C@H]1CN1C1=CC(=O)C(N2C[C@@H]2C)=CC1=O [ABQ24]
- T. brucei SI [2, 13]: <1
- EC50 [2, 11]: 1.47 ± 0.12 µM
- EC50 [2, 14]: 1.47 ± 0.12 µM
- EC50 [2, 15]: 1.47 ± 0.12 µM
- T. cruzi SI [3]: <11
- EC50 [3, 12]: 0.037 ± 0.001 µM
- L. major SI [4]: <1
- EC50 ([4]; promastigotes, 6 days): 0.473 ± 0.123 µM
- EC50 [5, 16]: < 0.4 µM
- Fold difference in EC50 Tbntr++ relative to control [6]: 2090 ± 160 (1.42)
- EC50 [6]: 2.09 µM
- Fold difference in EC50 Tbcpr2++ relative to control [7]: 1698 ± 23 (1.16)
- EC50 [7]: 1.7 µM
- Ratio of EC50 values ΔTbsnm1 / control [8]: 0.77
- Susceptibility of Tbsnm1 null mutants relative to wild type / control (fold more susceptible) [8]: no significant difference
- EC50 [8]: 1.13 ± 0.1 µM

Compound: S=P(N1CC1)(N1CC1)N1CC1 [ThioTEPA, reference compound]
- EC50 ([2]; read-out: EC50 Wild type): 39.4 ± 0.796 µM
- EC50 [1]: 56.3 ± 1.96 µM

Compound: CCOC(=O)NC1=C(N2CC2)C(=O)C(NC(=O)OCC)=C(N2CC2)C1=O [AZQ]
- EC50 ([2]; 72 h, read-out: T. brucei EC50): 8.23 ± 0.272 µM
- EC50 ([3]; Trypanosoma cruzi, 336 h): 6 ± 0.283 µM
- EC50 [4]: > 10 µM

— paper PMC5656836, “Distinct activation mechanisms trigger the trypanocidal activity of DNA damaging prodrugs” (Molecular Microbiology, 2017)
